Experimental data reported in patent US8524661B2, “Inhibiting serum response factor (SRF) to improve glycemic control” (Joslin Diabetes Center, Inc., priority 2008, dated 2013).
“Also recorded” adds a separate entry of the source.

Legend:
[1] = test system: SRF transcriptional activity; test: SRF transcriptional activity, 4x CArG (SRE) promoter luciferase reporter in C2C12 cells; assay type: cell-based
Description: To determine whether SRF transcriptional activity is also changed in insulin resistance, 4× tandem repeat of SRF binding element (SRE) CArG boxes (Kuwahara et al., Mol. Cell Biol. 25:3173-3181 (2005)) promoters linked to a luciferase gene were used as a reporter.

Akt = Akt phosphorylation in myotubes (phosphoimmunoblot); assay type: cell-based; conditions: for increase of insulin-stimulated Akt phosphorylation: C2C12 myotubes
Description: (§1) siRNA was used to specifically reduce MKL1 expression, achieving an effective knockdown of about 60%. This increased insulin-stimulated phosphorylation of Akt (Ser473), expressed relative to total Akt protein content, by 2-fold (p<0.01). […] Thus, siRNA-mediated reduction in MKL1 expression enhances both basal and insulin-stimulated glucose uptake in cultured myotubes.
The next experiments were performed to determine whether SRF transcriptional activity, rather than expression of SRF itself, is important for maintaining appropriate insulin sensitivity. A new compound, CCG-1423, is available for specifically inhibiting SRF transcriptional activity (Evelyn et al., Mol. Cancer. Ther. 6:2249-2260 (2007)). […] CCG-1423 was then evaluated to test the possibility that reducing SRF transcriptional activity improves insulin sensitivity. Indeed, this is the case. A dramatic improvement in insulin sensitivity resulted from treatment with CCG-1423 in dexamethasone-induced insulin resistant myotubes, as CCG-1423 increased insulin-simulated Akt phosphorylation (a marker of insulin sensitivity) (FIG. 11A).
(§2) In parallel, CCG-1423 enhanced insulin action in C2C12 myotubes. Overnight treatment with 1 μM CCG-1423 increased insulin-stimulated Akt phosphorylation, both in the presence and absence of dexamethasone (41% for both, p=0.01 and p=0.007, respectively), while having no effect on p42/44 ERK phosphorylation (FIG. 11C).

p42/44 ERK = test: ERK phosphorylation in C2C12 myotubes (phosphoimmunoblot); assay type: cell-based; conditions: overnight 1 μM CCG-1423, FIG. 11C
Description: as §2

IRS-1 = test: IR / IRS-1 tyrosine phosphorylation and p85 PI 3-kinase association in myotubes; assay type: cell-based
Text: FIG. 11D is a phosphoimmunoblot showing that CCG-1423 increases basal and insulin-stimulated tyrosine phosphorylation of IRS-1 and its association with p85-PI 3-kinase, in both control and DEX-treated myotubes. * indicates p<0.05, **p<0.01, ***p<0.001.
(§3) The molecular mechanism of the ability of CCG-1423 to reverse insulin resistance was further explored. The insulin—insulin receptor (1R)—insulin receptor substrate (IRS-1) pathway is the dominant up-stream signalling activator of Akt.
as §2

MKL1 = MKL1 cellular localization in C2C12 myoblasts; assay type: cell-based
C2C12 myotubes = test: Deoxyglucose uptake in cultured (C2C12) myotubes; assay type: cell-based; conditions: FIG. 11E
Text: as §1
(§4) Since CCG-1423 increased insulin signalling in myotubes, we hypothesized that CCG-1423 might also enhance glucose uptake. In DMSO (vehicle)-treated myotubes, insulin stimulated a 2-fold increase in deoxyglucose uptake in a dose-dependent manner, consistent with prior reports and the low insulin responsiveness in cultured myotubes (FIG. 11E). […] In parallel, expression of the dominant glucose transporters GLUT4 and GLUT1 was increased by CCG-1423 treatment by 4.1 and 2.5 fold, respectively (p<0.004).

L6 myotubes = test: 2-deoxyglucose uptake in L6 myotubes; assay type: cell-based; conditions: CCG-1423 1 uM, 16 hours, FIG. 11E
Description: FIG. 11E is a line graph showing that both basal and insulin-stimulated 2-deoxyglucose uptake are increased by >4-fold in L6 myotubes following CCG-1423, with enhanced insulin sensitivity (1 uM, 16 hours). * indicates p<0.05, **p<0.01, ***p<0.001.

human myotubes = test: Basal glucose uptake in human myotubes from control and diabetic subjects; assay type: cell-based
Description: The effects of CCG-1423 on human myotubes, and whether these effects would differ in myotubes derived from controls (n=2) vs. diabetic subjects (n=6), were also evaluated. […] The differential responsiveness in subjects with DM supports the concept that SRF pathways are more robustly activated in humans with insulin resistance and DM, and therefore potentially more sensitive to SRF inhibition.

GLUT4 = GLUT4 expression in myotubes; assay type: cell-based; conditions: CCG-1423 treatment, p<0.004
Text: as §4

GLUT1 = GLUT1 expression in myotubes; assay type: cell-based; conditions: CCG-1423 treatment, p<0.004
Text: as §4

[2] = test system: mice with diet-induced obesity; test: CCG-1423 treatment of mice with diet-induced obesity (HFD); assay type: in vivo
Description: To examine the therapeutic potential of this SRF inhibitor in vivo, we assessed responses to CCG-1423 treatment in mice with diet-induced obesity. […] The HFD mice were administered CCG-1423 (0.15 mg/kg body weight intraperitoneally) for two weeks.
In parallel, the high insulin levels associated with insulin resistance were normalized by CCG-1423 treatment (FIG. 13C).

[3] = test system: SRF target gene expression; test: SRF target gene expression in CCG-1423 treated cells; assay type: cell-based; conditions: basal or insulin stimulated state
Text: as §3

SRF = test: Low density DNA binding arrays, SRF DNA binding activity; assay type: cell-based; conditions: C2C12 myotubes
Description: To explore the above possibility, DNA binding activity of SRF and it co-factor ELK1 to the target gene promoter was first evaluated. To this end, electrophoretic mobility shift assays (EMSA) were performed. […] In support to this idea, in low density DNA binding arrays, SRF DNA binding activity was dramatically (5-10 fold, respectively) increased in primary myotubes from insulin resistant human and free fatty acid (FFA)-treated C2C12 myotubes compared to control.

[4] = test system: MKL1-dependent and -independent SRF pathways; test: Gene set enrichment of SRF pathways in C2C12 myotubes; assay type: cell-based; conditions: compared with control BSA treated cells
STARS = STARS expression in C2C12 myotubes after actin disruption; assay type: cell-based; conditions: p<0.03, not shown
Text: Additional pathway analysis using MAPPFinder confirmed that serum response factor (SRF)-dependent and actin-related cytoskeleton gene expression is increased in diabetes, and more importantly, also in insulin resistance. The top-ranking single gene differentially expressed in skeletal muscle in the fasting state is the Actin-binding Rho activating protein (ABRA), or STARS, increased by 2.5 fold in individuals with type 2 diabetes (p<0.01). This gene regulates intracellular actin dynamics and subcellular localization of MKL1/2, thus contributing to SRF-dependent gene transcription. Since disruption of actin by latrunculin B increases STARS expression in C2C12 cells by 50% in C2C12 myotubes (p<0.03, not shown), it was hypothesize that increased STARS expression in DM may reflect disruption of actin dynamics and also contribute to the pattern of increased SRF-related gene expression. Similar patterns of SRF-dependent expression are also observed in adipose tissue from insulin resistant subjects and in insulin resistant muscle.

With `CC(ONC(=O)c1cc(C(F)(F)F)cc(C(F)(F)F)c1)C(=O)Nc1ccc(Cl)cc1` (stereo not shown) [CCG-1423] the “SRF-mediated transcriptional activity (4x CArG / SRE promoter activity)” value ([1]; C2C12 myoblasts, serum (FBS 2 hours) or dexamethasone stimulation, CCG-1423 1 uM, 16 hours pre-treatment, FIG. 11B) was “efficiently blocked”, the “SRF transcriptional activity induced by serum, dexamethasone, and insulin” value ([1]; C2C12 myotubes, FIG. 10) was “specifically block; also recorded: inhibits” and the “increase of insulin-stimulated Akt phosphorylation” value (Akt; overnight 1 μM CCG-1423, absence of dexamethasone, p=0.007) was 41%. For the same molecule, the “increase of insulin-stimulated Akt phosphorylation” value (Akt; overnight 1 μM CCG-1423, presence of dexamethasone, p=0.01) was 41%, the “insulin-stimulated Akt phosphorylation (marker of insulin sensitivity)” value (Akt; dexamethasone-induced insulin resistant myotubes, FIG. 11A) was “increased; also recorded: improves” and the “insulin-stimulated Akt phosphorylation” value (Akt; insulin 100 nM, 10 minutes, FIG. 11C) was “increases”. For the same molecule, the “p42/44 ERK phosphorylation” value (p42/44 ERK) was “no effect; also recorded: minimal change”, the p85 expression (IRS-1; C2C12 myotubes) was “without altering” and the “basal and insulin-stimulated tyrosine phosphorylation of IRS-1 and its association with p85 PI 3-kinase” value (IRS-1; control and DEX-treated myotubes, FIG. 11D) was “increases”. For the same molecule, the “phosphorylation of IR and IRS-1 protein” value (IRS-1; with insulin stimulation) was “massive phosphorylation”, the MKL1 localization (MKL1; compound alone) was “almost exclusively localized to the cytoplasm” and the “MKL1 localization, effect on dexamethasone-induced nuclear localization” value (MKL1; with dexamethasone) was “reversed dexamethasone-induced MKL1 nuclear localization to partial cytoplasmic localization”. For the same molecule, the “insulin-stimulated deoxyglucose uptake response” value (C2C12 myotubes; myotubes incubated with CCG-1423, 1 uM insulin) was 11.5 fold, the “glucose uptake increase in the basal state” value (C2C12 myotubes; myotubes incubated with CCG-1423) was 4 fold and the “basal and insulin-stimulated 2-deoxyglucose uptake increase” value (L6 myotubes) was greater than 4 fold. For the same molecule, the “basal increase in glucose uptake (mean)” value (human myotubes; myotubes from control subjects (n=2)) was 1.2 fold, the “basal increase in glucose uptake (mean)” value (human myotubes; myotubes from diabetic subjects (n=6)) was 3.2 fold and the GLUT4 expression increase (GLUT4) was 4.1 fold. For the same molecule, the GLUT1 expression increase (GLUT1) was 2.5 fold, the “serum insulin levels during glucose tolerance test” value ([2]; 15 minutes after glucose injection, HFD+CCG vs vehicle-treated HFD, FIG. 13C) was “normalized; also recorded: significantly reduced” and the “expression of SRF or ELK1” value ([2]; HFD mice, 0.15 mg/kg intraperitoneally, two weeks) was “did not alter”. For the same molecule, the “expression of SRF targets in skeletal muscle, e.g., ZYX and PDLIM7” value ([2]; HFD mice, 0.15 mg/kg intraperitoneally, two weeks, vs vehicle-injected controls) was “significantly decreased”, the food intake ([2]; HFD mice, 0.15 mg/kg intraperitoneally, two weeks, vs vehicle-treated HFD mice) was “No significant change” and the body weight ([2]; HFD mice, 0.15 mg/kg intraperitoneally, two weeks, vs vehicle-treated HFD mice, FIG. 12, 0.15 mg/kg) was “No significant change; also recorded: not altered”. The “glucose tolerance test area under the curve (AUC)” value ([2]; HFD+CCG vs vehicle-treated HFD animals, FIG. 13B, p<0.006) was “significantly reduced”, the adiponectin levels ([2]; HFD-fed mice) was “No differences” and the “circulating fatty acid levels” value ([2]; HFD-fed mice) was “No differences”. For the same molecule, the insulin tolerance testing ([2]; HFD-fed mice) was “No differences”, the “in vivo glucose tolerance (intra peritoneal glucose tolerance test)” value ([2]; HFD-fed mice vs HFD-fed vehicle-treated controls, FIG. 13A) was “significantly improved; also recorded: improves” and the “SRF target gene expression” value [3] was “does not induces”.

In the case of `CCCCCCCCCCCCCCCC(=O)O` [FFA], the “SRF transcriptional activity at basal level” value ([1]; C2C12 myotubes, experimentally induced insulin resistance, FIG. 4) is reported as “dramatically increased”, the “increase of SRF DNA binding activity compared to control” value (SRF) is reported as 5-10 fold and the “enrichment of MKL1-dependent and -independent SRF pathways” value [4] is reported as “significant enrichment”.

With `C/C1=C/C(=O)O[C@@H]2C[C@@H](CC[C@H](C)/C=C\CC1)O[C@@](O)([C@@H]1CSC(=O)N1)C2` [latrunculin B] the “increase of STARS expression” value (STARS) was 50%.
